pEC50, pIC50: −log10 of the molar value.
Key:
PIK3CG = target: T1, PIK3CG (Homo sapiens, UniProt P48736); experiment: KinomeScan competition binding assay; settings: 10 μM compound
T1 construct: purchased KinomeScan, a division of Ambit Biosciences
Method in brief: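 Quantitative PCR of a DNA tag measured how much tagged kinase stayed bound to an immobilized ATP-site ligand in the presence of compound. Results were expressed as percent-of-control binding, with Kd determined for selected kinases.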

C26 = experiment: Colon carcinoma cell proliferation, FACS count of live cells; type: cell-based, murine; settings: 72 hrs, 2.5, 5 or 10 μM
Procedure: (§1) Inhibition of β-catenin, which is positively regulated by CDK8, was reported to inhibit proliferation of some colon carcinoma cell lines (Firestein et al., 2008). We have therefore determined the ability of compound 1 to inhibit the proliferation of several colon carcinoma cell lines, including human DLD1, HCT116, SW480 and murine C26. This analysis waqs carried out by incubating cells for 72 hrs in the presence of 0, 2.5, 5 or 10 μM compound 1, followed by FACS measurement of the number of live cells, as defined by the lack of uptake of membrane-impermeable dye propidium iodide.

CDK7 = CDK7 (Homo sapiens, UniProt P50613); experiment: KinomeScan competition binding assay; parameters: purchased KinomeScan, a division of Ambit Biosciences; settings: 10 μM compound
Description: This similarity led us to test SNX14 for the ability to inhibit 285 kinases, using the services of KinaseProfiler of Millipore Corporation (285 kinases). […] The KINOMEscan assay has been described in detail in Fabian et al., Nat. Biotechnol. 23: 329 (2005) and Karaman et al., Nat. Biotechnol. 26: 127 (2008).
The KinomeScan assay is based on a competition binding assay that quantitatively measures the ability of a compound to compete with an immobilized, ATP site directed ligand. The assay is performed by combining three components: DNA-tagged kinase; immobilized ligand; and a test compound. The ability of the test compound to compete with the immobilized ligand is measured via quantitative PCR of the DNA tag. […] The CDKs tested by Millipore for inhibition with SNX14 included CDK1, CDK2, CDK3, CDK5, CDK7 and CDK9; none of these were inhibited to less than 49 percent of control (POC) activity. The CDKs tested by KinomeScan for the effect of Compound 1 included CDK2, CDK3, CDK4, CDK5, CDK7, CDK8, CDK9 and CDK19; aside from CDK8 and CDK19, the strongest inhibited CDK was CDK7 (33% POC binding). […] We have also determined the binding constant (Kd) for SNX14, compound 1, compound 20, compound 26, compound 43 and compound 14 in kinase assays for CDK8 and CDK19 (Table 1).

ALK = target: T2, ALK (Homo sapiens, UniProt Q9UM73); experiment: KinomeScan competition binding assay; settings: 10 μM compound
T2 construct: purchased KinomeScan, a division of Ambit Biosciences
Procedure: (§2) The KINOMEscan assay has been described in detail in Fabian et al., Nat. Biotechnol. 23: 329 (2005) and Karaman et al., Nat. Biotechnol. 26: 127 (2008).
(§3) The KinomeScan assay is based on a competition binding assay that quantitatively measures the ability of a compound to compete with an immobilized, ATP site directed ligand. The assay is performed by combining three components: DNA-tagged kinase; immobilized ligand; and a test compound. The ability of the test compound to compete with the immobilized ligand is measured via quantitative PCR of the DNA tag.

MET = target: T3, MET (Homo sapiens, UniProt P08581); experiment: KinomeScan competition binding assay; settings: 10 μM compound
T3 construct: purchased KinomeScan, a division of Ambit Biosciences
Procedure: as §2, §3

PIM2 = target: T4, PIM2 (Homo sapiens, UniProt Q9P1W9); experiment: KinomeScan competition binding assay; settings: 10 μM compound
T4 construct: purchased KinomeScan, a division of Ambit Biosciences
Procedure: as §2, §3

PKACb = target: T5, PKACb (Homo sapiens, UniProt P22694); experiment: KinomeScan competition binding assay; settings: 10 μM compound
T5 construct: purchased KinomeScan, a division of Ambit Biosciences
Procedure: as §2, §3

ROCK1 = target: T6, ROCK1 (Homo sapiens, UniProt Q13464); experiment: KinomeScan competition binding assay; settings: 10 μM compound
T6 construct: purchased KinomeScan, a division of Ambit Biosciences
Procedure: as §2, §3

LTK = target: T7, LTK (Homo sapiens, UniProt P29376); experiment: KinomeScan competition binding assay; settings: 10 μM compound
T7 construct: purchased KinomeScan, a division of Ambit Biosciences
Procedure: as §2, §3

JNK1 = target: T8, JNK1 (Homo sapiens, UniProt P45983); experiment: KinomeScan competition binding assay; settings: 10 μM compound
T8 construct: purchased KinomeScan, a division of Ambit Biosciences
Procedure: as §2, §3

PKACa = target: T9, PKACa (Homo sapiens, UniProt P17612); experiment: KinomeScan competition binding assay; settings: 10 μM compound
T9 construct: purchased KinomeScan, a division of Ambit Biosciences
Procedure: as §2, §3

ROCK2 = target: T10, ROCK2 (Homo sapiens, UniProt O75116); experiment: KinomeScan competition binding assay; settings: 10 μM compound
T10 construct: purchased KinomeScan, a division of Ambit Biosciences
Procedure: as §2, §3

RIOK2 = target: T11, RIOK2 (Homo sapiens, UniProt Q9BVS4); experiment: KinomeScan competition binding assay; settings: 10 μM compound
T11 construct: purchased KinomeScan, a division of Ambit Biosciences
Procedure: as §2, §3

PRKG2 = target: T12, PRKG2 (Homo sapiens, UniProt Q13237); experiment: KinomeScan competition binding assay; settings: 10 μM compound
T12 construct: purchased KinomeScan, a division of Ambit Biosciences
Procedure: as §2, §3

ROS1 = target: T13, ROS1 (Homo sapiens, UniProt P08922); experiment: KinomeScan competition binding assay; settings: 10 μM compound
T13 construct: purchased KinomeScan, a division of Ambit Biosciences
Procedure: as §2, §3

HUVECs = experiment: HUVEC proliferation, 3-day MTT assay; type: cell-based, human
SW480 = experiment: Colon carcinoma cell proliferation, FACS count of live cells; type: cell-based, human; settings: 72 hrs, 2.5, 5 or 10 μM
Procedure: as §1

HCT116 = experiment: as above; type: cell-based, human; settings: 72 hrs, 2.5, 5 or 10 μM
Procedure: as §1

DLD1 cells = experiment: as above; type: cell-based, human; settings: 72 hrs; read-out: IC50, growth inhibition
Procedure: as §1

HIV-1 = settings: read-out: EC50, decrease in fraction of HIV-infected (p24-positive) cells; day 5
Procedure: HIV replication was assayed in a cell-to-cell model of HIV-1 transmission using chronically infected H9IIIB as donor cells cocultivated with uninfected CEM-ss leukemia cell line as recipient cells. 1 ml of RPMI1640 medium (+10% Fetal Bovine Serum+Penicillin/Streptomycin+glutamine) containing 10^4 H9IIIB cells was mixed with 1 ml of the same medium containing 10^6 CEM-ss cells. […] The suspended cells were placed into a 25 cm^2 flask and incubated at 37° C., 5% CO2. On day 3, the cells were counted with a light microscope and an hemocytometer after trypan blue staining, which was used to determine the fraction of viable (trypan blue negative) cells. On day 5, the fraction of HIV-infected cells was determined using the K57-FITC conjugated monoclonal antibody to the HIV p24 antigen. For this measurement, the cells in each flask were mixed, 1 ml of cell culture was removed from each flask and placed into round bottom centrifuge tubes. The cells were separated from the medium by centrifugation at 1500 RPM for 5 minutes, the supernatants were aspirated and discarded and the cell pellets suspended in a fixative. […] The final pellets were suspended in 0.5 ml of PBS and the percentage of HIV p24-positive cells was determined by FACS analysis.

T1 sequence (P48736 whole entry): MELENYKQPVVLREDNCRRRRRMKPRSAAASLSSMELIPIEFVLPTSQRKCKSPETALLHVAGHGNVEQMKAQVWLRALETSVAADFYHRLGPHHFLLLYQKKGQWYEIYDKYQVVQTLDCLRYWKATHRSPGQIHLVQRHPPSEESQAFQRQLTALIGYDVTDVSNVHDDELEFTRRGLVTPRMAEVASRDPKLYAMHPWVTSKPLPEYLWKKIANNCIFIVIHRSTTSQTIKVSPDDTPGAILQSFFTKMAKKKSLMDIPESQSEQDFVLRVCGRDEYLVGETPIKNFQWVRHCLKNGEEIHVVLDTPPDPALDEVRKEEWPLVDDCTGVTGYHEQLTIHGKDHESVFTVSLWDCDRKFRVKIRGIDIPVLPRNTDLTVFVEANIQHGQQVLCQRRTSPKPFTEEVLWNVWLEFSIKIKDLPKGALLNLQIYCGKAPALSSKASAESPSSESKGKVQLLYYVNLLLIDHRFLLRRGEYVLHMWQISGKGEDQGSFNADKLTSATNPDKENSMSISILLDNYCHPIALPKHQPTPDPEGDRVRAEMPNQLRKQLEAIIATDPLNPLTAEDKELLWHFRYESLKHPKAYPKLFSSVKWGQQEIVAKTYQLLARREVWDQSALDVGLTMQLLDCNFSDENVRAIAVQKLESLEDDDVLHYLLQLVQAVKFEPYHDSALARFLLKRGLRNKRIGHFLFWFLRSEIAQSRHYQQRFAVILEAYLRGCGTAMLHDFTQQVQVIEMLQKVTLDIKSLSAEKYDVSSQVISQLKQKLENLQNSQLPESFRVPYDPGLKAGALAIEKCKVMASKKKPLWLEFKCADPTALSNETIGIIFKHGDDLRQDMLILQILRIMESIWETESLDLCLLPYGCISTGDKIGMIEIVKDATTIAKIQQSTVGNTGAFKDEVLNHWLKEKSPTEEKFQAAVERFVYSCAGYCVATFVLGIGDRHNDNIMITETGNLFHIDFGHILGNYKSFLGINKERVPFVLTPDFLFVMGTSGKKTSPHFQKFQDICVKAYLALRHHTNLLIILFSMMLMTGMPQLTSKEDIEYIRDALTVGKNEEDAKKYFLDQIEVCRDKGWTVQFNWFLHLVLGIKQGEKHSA
T6 sequence (Q13464 whole entry): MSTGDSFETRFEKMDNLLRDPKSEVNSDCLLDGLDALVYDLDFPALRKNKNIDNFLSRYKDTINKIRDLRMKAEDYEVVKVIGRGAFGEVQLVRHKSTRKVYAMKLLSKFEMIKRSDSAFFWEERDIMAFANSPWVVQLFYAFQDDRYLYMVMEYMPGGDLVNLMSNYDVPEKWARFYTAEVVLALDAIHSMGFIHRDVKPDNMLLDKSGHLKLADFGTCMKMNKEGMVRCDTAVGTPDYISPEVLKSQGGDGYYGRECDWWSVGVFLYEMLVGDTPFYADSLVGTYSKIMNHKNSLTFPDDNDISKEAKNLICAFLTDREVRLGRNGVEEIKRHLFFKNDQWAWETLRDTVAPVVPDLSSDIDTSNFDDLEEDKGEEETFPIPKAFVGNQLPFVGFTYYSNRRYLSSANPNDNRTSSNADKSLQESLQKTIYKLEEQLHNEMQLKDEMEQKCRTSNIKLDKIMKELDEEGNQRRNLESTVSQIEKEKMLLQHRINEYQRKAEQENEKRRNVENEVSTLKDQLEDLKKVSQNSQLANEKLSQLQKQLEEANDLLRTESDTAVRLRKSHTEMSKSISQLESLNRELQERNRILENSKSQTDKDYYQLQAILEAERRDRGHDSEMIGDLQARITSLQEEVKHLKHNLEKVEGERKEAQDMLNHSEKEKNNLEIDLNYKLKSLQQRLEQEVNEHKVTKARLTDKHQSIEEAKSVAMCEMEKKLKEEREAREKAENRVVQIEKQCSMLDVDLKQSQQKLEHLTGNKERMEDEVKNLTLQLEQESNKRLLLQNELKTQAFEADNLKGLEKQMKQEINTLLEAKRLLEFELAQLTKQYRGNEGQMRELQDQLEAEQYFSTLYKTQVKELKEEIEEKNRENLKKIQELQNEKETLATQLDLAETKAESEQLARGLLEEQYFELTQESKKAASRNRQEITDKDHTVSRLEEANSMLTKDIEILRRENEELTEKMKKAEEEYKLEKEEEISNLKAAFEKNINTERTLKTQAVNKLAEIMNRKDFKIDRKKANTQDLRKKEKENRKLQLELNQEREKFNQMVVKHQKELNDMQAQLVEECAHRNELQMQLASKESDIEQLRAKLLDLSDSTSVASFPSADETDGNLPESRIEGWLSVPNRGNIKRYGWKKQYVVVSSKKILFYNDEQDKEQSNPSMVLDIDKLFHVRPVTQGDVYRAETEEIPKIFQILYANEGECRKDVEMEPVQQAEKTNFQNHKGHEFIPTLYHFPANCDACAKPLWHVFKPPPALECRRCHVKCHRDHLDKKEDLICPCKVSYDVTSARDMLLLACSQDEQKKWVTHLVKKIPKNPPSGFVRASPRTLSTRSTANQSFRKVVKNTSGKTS
T8 sequence (P45983 whole entry): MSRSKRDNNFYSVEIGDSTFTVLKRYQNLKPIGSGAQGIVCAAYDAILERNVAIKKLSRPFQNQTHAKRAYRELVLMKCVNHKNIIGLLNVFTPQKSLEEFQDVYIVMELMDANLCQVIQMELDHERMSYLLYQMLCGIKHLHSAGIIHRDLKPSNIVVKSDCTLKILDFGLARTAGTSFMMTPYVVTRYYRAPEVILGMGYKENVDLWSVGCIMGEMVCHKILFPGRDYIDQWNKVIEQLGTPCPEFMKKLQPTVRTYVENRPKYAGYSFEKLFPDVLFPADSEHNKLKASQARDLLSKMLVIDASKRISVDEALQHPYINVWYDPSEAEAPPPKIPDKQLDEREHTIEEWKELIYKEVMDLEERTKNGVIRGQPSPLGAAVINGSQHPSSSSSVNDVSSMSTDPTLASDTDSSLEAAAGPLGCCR
T3 sequence (P08581 25-1390): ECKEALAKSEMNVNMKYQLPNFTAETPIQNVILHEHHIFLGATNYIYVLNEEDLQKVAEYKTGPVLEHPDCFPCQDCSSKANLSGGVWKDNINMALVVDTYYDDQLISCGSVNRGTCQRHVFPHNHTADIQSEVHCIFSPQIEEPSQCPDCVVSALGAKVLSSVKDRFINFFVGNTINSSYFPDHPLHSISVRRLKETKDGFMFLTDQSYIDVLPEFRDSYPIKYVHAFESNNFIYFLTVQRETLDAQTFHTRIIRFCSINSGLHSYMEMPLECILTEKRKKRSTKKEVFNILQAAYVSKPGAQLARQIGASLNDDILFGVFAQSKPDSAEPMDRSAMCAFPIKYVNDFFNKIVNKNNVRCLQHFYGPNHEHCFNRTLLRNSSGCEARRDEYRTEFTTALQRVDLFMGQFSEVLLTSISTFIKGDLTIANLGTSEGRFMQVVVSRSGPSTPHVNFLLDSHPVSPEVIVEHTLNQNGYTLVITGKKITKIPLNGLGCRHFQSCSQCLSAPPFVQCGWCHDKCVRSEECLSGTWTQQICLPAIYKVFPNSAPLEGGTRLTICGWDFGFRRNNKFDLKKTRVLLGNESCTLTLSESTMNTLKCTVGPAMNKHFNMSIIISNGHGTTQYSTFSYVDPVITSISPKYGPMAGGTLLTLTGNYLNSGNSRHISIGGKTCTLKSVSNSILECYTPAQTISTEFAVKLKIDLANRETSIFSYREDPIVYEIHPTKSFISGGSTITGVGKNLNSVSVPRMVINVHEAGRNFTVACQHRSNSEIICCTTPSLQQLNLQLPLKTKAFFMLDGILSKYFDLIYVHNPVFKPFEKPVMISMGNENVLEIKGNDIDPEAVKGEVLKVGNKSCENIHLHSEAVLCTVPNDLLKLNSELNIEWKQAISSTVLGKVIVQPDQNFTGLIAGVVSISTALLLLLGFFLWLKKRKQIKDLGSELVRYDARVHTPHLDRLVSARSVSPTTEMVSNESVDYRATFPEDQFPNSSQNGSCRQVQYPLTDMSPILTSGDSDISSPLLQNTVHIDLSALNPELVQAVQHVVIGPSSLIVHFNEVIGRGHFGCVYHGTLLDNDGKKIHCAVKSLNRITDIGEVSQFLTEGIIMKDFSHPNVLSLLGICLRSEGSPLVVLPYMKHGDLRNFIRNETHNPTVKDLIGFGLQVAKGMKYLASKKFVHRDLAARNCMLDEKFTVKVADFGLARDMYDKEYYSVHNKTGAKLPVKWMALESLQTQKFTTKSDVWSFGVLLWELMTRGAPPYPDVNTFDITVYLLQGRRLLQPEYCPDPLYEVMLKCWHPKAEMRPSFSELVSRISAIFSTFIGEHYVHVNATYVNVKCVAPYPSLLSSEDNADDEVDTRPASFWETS
T12 sequence (Q13237 whole entry): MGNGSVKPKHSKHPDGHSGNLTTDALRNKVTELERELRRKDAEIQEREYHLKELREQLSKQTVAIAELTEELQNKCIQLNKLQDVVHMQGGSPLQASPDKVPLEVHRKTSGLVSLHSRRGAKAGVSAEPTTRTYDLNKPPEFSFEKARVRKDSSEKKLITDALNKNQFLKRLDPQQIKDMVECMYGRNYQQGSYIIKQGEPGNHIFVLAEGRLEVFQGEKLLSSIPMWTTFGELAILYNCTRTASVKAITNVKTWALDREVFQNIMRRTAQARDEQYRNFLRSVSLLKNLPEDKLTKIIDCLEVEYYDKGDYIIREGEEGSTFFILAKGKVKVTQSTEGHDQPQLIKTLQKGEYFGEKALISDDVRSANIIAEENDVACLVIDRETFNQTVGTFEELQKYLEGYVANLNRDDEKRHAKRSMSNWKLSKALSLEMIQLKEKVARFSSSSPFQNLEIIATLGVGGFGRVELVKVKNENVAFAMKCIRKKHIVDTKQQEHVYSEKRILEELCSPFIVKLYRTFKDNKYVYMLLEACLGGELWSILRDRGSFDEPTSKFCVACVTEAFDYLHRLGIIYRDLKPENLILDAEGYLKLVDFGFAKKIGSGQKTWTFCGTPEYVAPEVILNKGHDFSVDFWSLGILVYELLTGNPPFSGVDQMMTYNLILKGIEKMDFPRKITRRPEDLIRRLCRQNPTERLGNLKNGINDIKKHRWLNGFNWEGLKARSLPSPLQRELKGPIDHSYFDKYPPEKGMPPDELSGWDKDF

## N#Cc1ccc2ncnc(NCc3ccc4ccccc4c3)c2c1 [compound 43]
PIK3CG
  POC ligand binding, PIK3CG: 35 POC

## CCCNc1ncnc2ccc(N3CCOCC3)cc12 [compound 46]
PIK3CG
  POC ligand binding, PIK3CG: 94 POC

## N#Cc1ccc2ncnc(NCc3ccc(Cl)cc3)c2c1 [compound 20]
PIK3CG
  POC ligand binding, PIK3CG: 40 POC

## N#Cc1ccc2ncnc(NCCc3ccc4ccccc4c3)c2c1 [compound 26]
PIK3CG
  POC ligand binding, PIK3CG: 58 POC

## N#Cc1ccc2ncnc(NCCc3ccccc3)c2c1 [compound 1]
C26
  growth of colon carcinoma cell line: inhibited the growth
CDK7
  POC binding, CDK7: 33 % POC
ALK
  POC binding, ALK: 78 POC
MET
  POC binding, MET: 86 POC
PIM2
  POC binding, PIM2: 52 POC
PKACb
  POC binding, PKACb: 89 POC
ROCK1
  POC binding, ROCK1: 79 POC
LTK
  POC binding, LTK: 100 POC
JNK1
  POC binding, JNK1: 45 POC
PKACa
  POC binding, PKACa: 82 POC
ROCK2
  POC binding, ROCK2: 89 POC
RIOK2
  POC binding, RIOK2: 23 POC
PRKG2
  POC binding, PRKG2: 85 POC
ROS1
  POC binding, ROS1: 63 POC
HUVECs; 0.625 or 1.25 μM
  effect on HUVEC cell number relative to untreated control: little or no effect
HUVECs; 3-day MTT
  pIC50: 4.98
SW480
  growth of colon carcinoma cell line: inhibited the growth
HCT116
  growth of colon carcinoma cell line: inhibited the growth
DLD1 cells
  pIC50: ~5.30
PIK3CG
  POC ligand binding, PIK3CG: 8 POC
KB-3-1 carcinoma cells
  IC50 KB-3-1 relative to IC50 for HUVEC cells: 4.3 fold
KB-3-1 carcinoma cells; read-out: IC50, KB-3-1 proliferation, 3-day MTT
  pIC50: 4.35
HIV-1
  pEC50: 6.24

## COc1ccc2ncnc(NCCc3ccccc3)c2c1 [compound 44]
PIK3CG
  POC ligand binding, PIK3CG: 88 POC

## CC(C)CNc1ncnc2ccc(C(F)(F)F)cc12 [compound 45]
PIK3CG
  POC ligand binding, PIK3CG: 82 POC

## N#Cc1ccc2ncnc(NCc3ccc4ccccc4c3)c2c1 [compound 14]
PIK3CG
  POC ligand binding, PIK3CG: 35 POC

From patent US8598344B2, “CDKI pathway inhibitors and uses thereof” (Senex Biotechnology, priority 2009, dated 2013)
